According to ChEMBL document CHEMBL3608207, “Synthesis, characterization, evaluation and molecular dynamics studies of 5, 6-diphenyl-1,2,4-triazin-3(2H)-one derivatives bearing 5-substituted 1,3,4-oxadiazole as potential anti-inflammatory and analgesic agents” (Eur J Med Chem, 2015):

What was measured:
[1] = system: Rattus norvegicus; assay: Anti-inflammatory activity in rat model of acute inflammation assessed as inhibition of carrageenan-induced paw oedema dosed at equimolar oral dose relative to 10 mg/kg, po indomethacin dosed 1 hr before carrageenan injection and measured 1 hr after carrageenan injection; assay type: functional
[2] = system: Rattus norvegicus; assay: Toxicity in healthy albino rat assessed as induction of convulsion up to 500 mg/kg, po; assay type: organism-based; settings: in vivo
[3] = system: Rattus norvegicus; assay: Toxicity in healthy albino rat assessed as induction of coma up to 500 mg/kg, po; assay type: organism-based; settings: in vivo
[4] = system: Rattus norvegicus; assay: Anti-inflammatory activity in rat model of acute inflammation assessed as inhibition of carrageenan-induced paw oedema dosed at equimolar oral dose relative to 10 mg/kg, po indomethacin dosed 1 hr before carrageenan injection and measured 2 hrs after carrageenan injection; assay type: functional
[5] = system: Rattus norvegicus; assay: Anti-inflammatory activity in rat model of acute inflammation assessed as inhibition of carrageenan-induced paw oedema dosed at equimolar oral dose relative to 10 mg/kg, po indomethacin dosed 1 hr before carrageenan injection and measured 6 hrs after carrageenan injection; assay type: functional
[6] = system: Rattus norvegicus; assay: Toxicity in healthy albino rat assessed as induction of tremors up to 500 mg/kg, po; assay type: organism-based; settings: in vivo
[7] = Octanol/water partition coefficient, log P of the compound by shake flask method; assay type: physicochemical
[8] = system: Rattus norvegicus; assay: Anti-inflammatory activity in rat model of acute inflammation assessed as inhibition of carrageenan-induced paw oedema dosed at equimolar oral dose relative to 10 mg/kg, po indomethacin dosed 1 hr before carrageenan injection and measured 5 hrs after carrageenan injection; assay type: functional
[9] = system: Rattus norvegicus; assay: Anti-inflammatory activity in rat model of acute inflammation assessed as inhibition of carrageenan-induced paw oedema dosed at equimolar oral dose relative to 10 mg/kg, po indomethacin dosed 1 hr before carrageenan injection and measured 3 hrs after carrageenan injection; assay type: functional
[10] = system: Rattus norvegicus; assay: Toxicity in healthy albino rat assessed as induction of lethargy up to 500 mg/kg, po; assay type: organism-based; settings: in vivo
[11] = system: Rattus norvegicus; assay: Toxicity in healthy albino rat assessed as induction of sleep up to 500 mg/kg, po; assay type: organism-based; settings: in vivo
[12] = Retardation factor of the compound; assay type: physicochemical
[13] = system: Rattus norvegicus; assay: Toxicity in healthy albino rat assessed as induction of salivation up to 500 mg/kg, po; assay type: organism-based; settings: in vivo
[14] = system: Rattus norvegicus; assay: Anti-inflammatory activity in rat model of acute inflammation assessed as inhibition of carrageenan-induced paw oedema dosed at equimolar oral dose relative to 10 mg/kg, po indomethacin dosed 1 hr before carrageenan injection and measured 5 hrs after carrageenan injection relative to 10 mg/kg, po indomethacin; assay type: functional
[15] = In-vitro anti-inflammatory activity assessed as inhibition of denaturation of bovine serum albumin at equimolar dose relative to 10 mg indomethacin; assay type: functional
[16] = system: Rattus norvegicus; assay: Anti-inflammatory activity in rat model of acute inflammation assessed as inhibition of carrageenan-induced paw oedema dosed at equimolar oral dose relative to 10 mg/kg, po indomethacin dosed 1 hr before carrageenan injection and measured 4 hrs after carrageenan injection; assay type: functional
[17] = system: Rattus norvegicus; assay: Toxicity in healthy albino rat assessed as induction of diarrhoea up to 500 mg/kg, po; assay type: organism-based; settings: in vivo
[18] = system: Rattus norvegicus; assay: Toxicity in healthy albino rat assessed as induction of changes in autonomic or behavioural responses up to 500 mg/kg, po; assay type: organism-based; settings: in vivo
[19] = system: Rattus norvegicus; assay: Toxicity in healthy albino rat assessed as induction of mortality at 500 mg/kg, po measured after 14 days; assay type: organism-based; settings: in vivo, 336 h
[20] = system: Mus musculus; assay: Analgesic activity in Swiss albino mouse assessed as reduction in formalin-induced paw licking by measuring time spent on licking during phase-1 at 10 mg/kg, po dosed 1 hr before formalin challenge and measured 30 mins after formalin injection; assay type: functional
[21] = system: Mus musculus; assay: Analgesic activity in Swiss albino mouse assessed as reduction in formalin-induced paw licking by measuring time spent on licking during phase-2 at 10 mg/kg, po dosed 1 hr before formalin challenge and measured 30 mins after formalin injection; assay type: functional
[22] = system: Rattus norvegicus; assay: Anti-inflammatory activity in rat assessed as inhibition of arachidonic acid-induced paw edema at 10 mg/kg, po dosed 30 mins before arachidonic acid injection and measured 1 hr after arachidonic acid injection; assay type: functional

Compound: O=c1nc(-c2ccccc2)c(-c2ccccc2)nn1Cc1nnc(-c2ccc(Cl)cc2Cl)o1
- inhibition (INH) [1]: 12.01%
- Activity [2]: Non-toxic
- Activity [3]: Non-toxic
- inhibition (INH) [4]: 28.44%
- inhibition (INH) [5]: 35.42%
- Activity [6]: Non-toxic
- logP [7]: 4.45
- inhibition (INH) [8]: 38.31%
- inhibition (INH) [9]: 31.23%
- Activity [10]: Non-toxic
- Activity [11]: Non-toxic
- Rf [12]: 0.51
- Activity [13]: Non-toxic
- inhibition (INH) [14]: 61.16%
- inhibition [15]: 67.7%
- inhibition (INH) [16]: 34.8%
- Activity [17]: Non-toxic
- Activity [18]: Non-toxic
- Activity [19]: Non-toxic

Compound: Oc1nnc(-c2ccccc2)c(-c2ccccc2)n1
- inhibition [15]: 30.7%

Compound: N#Cc1cccc(-c2nnc(Cn3nc(-c4ccccc4)c(-c4ccccc4)nc3=O)o2)c1
- logP [7]: 3.74
- Rf [12]: 0.45
- inhibition [15]: 62.3%

Compound: O=c1nc(-c2ccccc2)c(-c2ccccc2)nn1Cc1nnc(-c2cccc(Cl)c2)o1
- logP [7]: 3.82
- Rf [12]: 0.45
- inhibition [15]: 64.4%

Compound: O=c1nc(-c2ccccc2)c(-c2ccccc2)nn1Cc1nnc(Oc2ccc(Cl)cc2Cl)o1
- inhibition (INH) [1]: 15.59%
- Activity [2]: Non-toxic
- Activity [3]: Non-toxic
- inhibition (INH) [4]: 34.87%
- inhibition (INH) [5]: 44.89%
- Activity [6]: Non-toxic
- logP [7]: 4.4
- inhibition (INH) [8]: 47.14%
- inhibition (INH) [9]: 42.02%
- Activity [10]: Non-toxic
- Activity [11]: Non-toxic
- Rf [12]: 0.47
- Activity [13]: Non-toxic
- inhibition (INH) [14]: 75.25%
- inhibition [15]: 72.7%
- inhibition (INH) [16]: 45.24%
- Activity [17]: Non-toxic
- Activity [18]: Non-toxic
- Activity [19]: Non-toxic

Compound: CC(C)=CCN1CC[C@]2(C)c3cc(O)ccc3C[C@H]1[C@H]2C [(+)-PENTAZOCINE]
- inhibition in vivo at 10 mg/kg [20]: 88.9%
- inhibition in vivo at 10 mg/kg [21]: 90.2%

Compound: Cc1ccccc1-c1nnc(Cn2nc(-c3ccccc3)c(-c3ccccc3)nc2=O)o1
- logP [7]: 3.81
- Rf [12]: 0.36
- inhibition [15]: 53.7%

Compound: COc1cccc(-c2nnc(Cn3nc(-c4ccccc4)c(-c4ccccc4)nc3=O)o2)c1
- logP [7]: 3.47
- Rf [12]: 0.38
- inhibition [15]: 62.7%

Compound: CC(c1cc2ccccc2s1)N(O)C(N)=O (centres undefined) [ZILEUTON]
- inhibition in vivo at 10 mg/kg [22]: 67.4%

Compound: O=c1nc(-c2ccccc2)c(-c2ccccc2)nn1Cc1nnc(-c2ccccc2[N+](=O)[O-])o1
- inhibition (INH) [1]: 12.12%
- Activity [2]: Non-toxic
- Activity [3]: Non-toxic
- inhibition (INH) [4]: 30.7%
- inhibition (INH) [5]: 39%
- Activity [6]: Non-toxic
- logP [7]: 3.64
- inhibition (INH) [8]: 41.29%
- inhibition (INH) [9]: 36.39%
- Activity [10]: Non-toxic
- Activity [11]: Non-toxic
- Rf [12]: 0.35
- Activity [13]: Non-toxic
- inhibition (INH) [14]: 65.92%
- inhibition [15]: 70.1%
- inhibition (INH) [16]: 38.75%
- Activity [17]: Non-toxic
- Activity [18]: Non-toxic
- Activity [19]: Non-toxic

Compound: NNC(=O)Cn1nc(-c2ccccc2)c(-c2ccccc2)nc1=O
- inhibition [15]: 38.3%

Compound: Cc1ccc(-c2nnc(Cn3nc(-c4ccccc4)c(-c4ccccc4)nc3=O)o2)cc1
- logP [7]: 3.73
- Rf [12]: 0.34
- inhibition [15]: 50.3%

Compound: CCOC(=O)Cn1nc(-c2ccccc2)c(-c2ccccc2)nc1=O
- inhibition [15]: 35.7%

Compound: O=c1nc(-c2ccccc2)c(-c2ccccc2)nn1Cc1nnc(-c2ccccc2)o1
- logP [7]: 3.54
- Rf [12]: 0.4
- inhibition [15]: 50.3%

Compound: O=c1nc(-c2ccccc2)c(-c2ccccc2)nn1Cc1nnc(-c2ccncc2)o1
- logP [7]: 3.67
- Rf [12]: 0.43
- inhibition [15]: 47.9%
